Patent US9862998B2, “Conformational probes and methods for sequencing nucleic acids” (Illumina, Inc., priority 2010, dated 2018)
“Also recorded” adds a separate entry of the source.

How the values were obtained:
Type in all cases: biochemical
[1] = target: T1, 5-TAMRA Pol β (W325C Pol β) (Homo sapiens, UniProt P06746, W325C); assay: Stopped-flow 5-TAMRA fluorescence detection of nucleotide incorporation by 5-TAMRA Pol β; details: for amplitudes and durations for the 5-TAMRA emission shift: incorporated at an appropriate position in a template-bound primer, FIG. 10, 11, 13
T1 construct: made in house; host or cells: E. coli BL21(DE3)
Method: 5-TAMRA Pol β was prepared as follows. Human Pol β was mutated to replace Tryptophan 325 (in the fingers domain) with cysteine to produce W325C Pol β. Standard mutagenesis techniques were used to produce W325C Pol β as described in Example III. The W325C Pol β was cloned in the pET15b plasmid, expressed in E. coli BL21(DE3) cells and purified as described in Dunlap and Tsai, Biochemistry, 41 (37): 11226-11235 (2002), which is incorporated herein by reference. The purified W325C Pol β was chemically modified to introduce the 5-TAMRA fluorescent dye at cysteine 325, thereby producing 5-TAMRA Pol β.
Conformational changes in the 5-TAMRA Pol β enzyme from the open to closed state can be detected based on a fluorescent emission change from the environmentally sensitive 5-TAMRA dye. The spectral and emission intensity changes from the 5-TAMRA dye when the polymerase changes to the closed state. The 5-TAMRA Pol β enzyme can be bound to a primer-template nucleic acid complex in an open conformation. In the open conformation the 5-TAMRA dye when excited with light at a wavelength of 542 nm will emit fluorescence at a wavelength of 568 nm. However upon binding of an appropriate nucleotide to the 5-TAMRA Pol β-primer-template binary complex, the 5-TAMRA Pol β enzyme changes from the open state to the closed state causing the 5-TAMRA dye to experience a different environment. This change in environment results in a detectable fluorescent emission change from the TAMRA dye at the wavelength of 568 nm. As such, binding of the appropriate nucleotide can be detected as a fluorescent emission change at 568 nm wavelength. Furthermore, differential time durations of the closed state can be used to distinguish different nucleotides that are incorporated into the primer by 5-TAMRA Pol β.
The real-time fluorescence change from 5-TAMRA Pol β was measured in the Applied Photophysics SX20 stopped-flow spectrometer by monitoring changes in 5-TAMRA dye fluorescence following the mixing of the 5-TAMRA Pol β-DNA binary complex with a nucleotide in a reaction buffer containing 50 mM Tris-HCl, pH 7.5, 50 mM KCl, 1 mM Dithiothreitol and 5 mM MgCl2 as described in Example III.
(§1) Dual labeled KF was produced as described in Example III. FRET from dual labeled KF was measured by stopped flow kinetics also as described in Example III. 5-TAMRA Pol β was prepared as described in Example IV. The real time fluorescence change from 5-TAMRA Pol β was measured by stopped flow kinetics also as described in Example IV.

[2] = target: Alexa 488 and 532 dual-labeled KF (K550C/L744C/C907G Klenow Fragment) (Escherichia coli, UniProt P00582, C907G/K550C/L744C); set-up: made in house; host or cells: E. coli BL21(DE3); details: for time durations of the FRET signal for incorporation into the primer: AF488 donor fluorescence, stopped flow, FIG. 5-7; for FRET duration, correct versus incorrect incorporation: position complementary to cytosine, dGTP correct, dCTP incorrect, FIG. 8; for AF488 fluorescence duration measured for the incorporation: dTTP versus Gamma-ANS-dTTP, FIG. 12
Sequence of Alexa 488 and 532 dual-labeled KF (K550C/L744C/C907G Klenow Fragment) (P00582 324-928 K550C/L744C/C907G): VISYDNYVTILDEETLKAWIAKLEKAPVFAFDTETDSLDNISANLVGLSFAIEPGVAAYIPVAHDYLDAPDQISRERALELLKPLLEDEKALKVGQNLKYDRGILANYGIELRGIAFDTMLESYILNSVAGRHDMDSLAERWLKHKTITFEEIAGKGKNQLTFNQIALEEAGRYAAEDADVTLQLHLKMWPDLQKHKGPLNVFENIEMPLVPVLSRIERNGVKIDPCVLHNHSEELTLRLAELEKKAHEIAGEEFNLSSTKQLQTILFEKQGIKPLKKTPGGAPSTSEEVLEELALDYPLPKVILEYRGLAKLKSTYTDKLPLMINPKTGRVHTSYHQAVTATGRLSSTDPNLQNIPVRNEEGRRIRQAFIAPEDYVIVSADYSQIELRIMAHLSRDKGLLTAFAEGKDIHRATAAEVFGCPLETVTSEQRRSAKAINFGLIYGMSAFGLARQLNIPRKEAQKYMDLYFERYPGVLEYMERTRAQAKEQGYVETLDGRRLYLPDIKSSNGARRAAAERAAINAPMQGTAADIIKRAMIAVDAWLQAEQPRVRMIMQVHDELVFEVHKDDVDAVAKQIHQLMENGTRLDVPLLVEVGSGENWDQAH
Excerpt: The Klenow Fragments (KF) was produced as follows. KF was mutated to replace cysteine 907 with glycine, to replace leucine 744 (in the fingers domain) with cysteine and to replace lysine 550 (in the thumb domain) with cysteine, thereby producing K550C/L744C/C907G KF. Standard mutagenesis techniques were used to produce K550C/L744C/C907G KF as described in the manual of the QuikChange® site-directed mutagenesis kit from Stratagene/Agilent (La Jolla, Calif.). The K550C/L744C/C907G KF was cloned into the pET15b plasmid using the NdeI and BamHI restriction sites, and expressed in E. coli BL21(DE3) cells. The K550C/L744C/[…] KF was purified as described in Joyce, et al. Biochemistry, 47 (23): 6103-6116 (2008), which is incorporated herein by reference. The purified K550C/L744C/C907C KF was chemically modified using the thiol-reactive maleimide to introduce the Alexa488 fluorescent donor dye at cysteine 550
Conformational changes in the dual labeled KF enzyme from the open to closed state can be detected based on fluorescence resonance energy transfer (FRET) between the AF488 fluorescent donor dye on the thumb domain and AF532 fluorescence acceptor dye on the fingers domain. The KF enzyme can be bound to a primer-template nucleic acid complex in an open conformation. In the open conformation the AF488 fluorescent donor dye when excited with light at a wavelength of 495 nm will emit fluorescence at a wavelength of 519 nm. However, upon binding of an appropriate nucleotide to the dual labeled KF-template-primer complex the dual labeled KF enzyme changes from the open state to the closed state. The closed state brings the AF488 fluorescent donor dye on the thumb domain into proximity with the AF532 fluorescence acceptor dye on the finger domain such that the AF488 fluorescent donor dye when excited transfers energy to the AF532 fluorescence acceptor dye. This FRET results in a detectable emission from the AF532 fluorescence acceptor dye at a wavelength of […]. As such, binding of the appropriate nucleotide can be detected as increased emission at 554 nm wavelength. Furthermore, differential time durations of the closed state can be used to distinguish different nucleotides that are incorporated into the primer by dual labeled KF.
The real-time fluorescence change from dual labeled KF was measured in an Applied Photophysics SX20 stopped-flow spectrometer by monitoring changes in AF 488 dye fluorescence following the mixing of the PolI(KF)-DNA binary complex with a nucleotide in the reaction buffer containing 10 mM Tris-HCl, pH 8.0, 50 mM NaCl, 1 mM dithiothreitol and 10 mM MgCl2.
as §1

[3] = system: nucleic acid duplex of extendable 3'-OH primer and AF488 template; assay: FRET-based primer extension assay (AF488 quenching); details: AF488 quenching over time by Cy3-dCTP incorporation, FIG. 16
Method: Functionality of the Cy3AF647 and CF555AF647 conjugates of RB69V510CE766C were confirmed using a FRET-based primer extension assay as follows. Extension was carried out on a nucleic acid duplex composed of an extendable 3′-OH primer and a template with a 7 base overhang. The extendable sequence was TGGAACG. In addition, the template contained an AF488 dye at the 5′ position. The extension reaction mix was composed of 50 mM ACES pH 7.2, 50 mM NaCl, 10 mM DTT, 10 mM Mg′, 1 μM dTTP, 1 μM dGTP, 1 μM dATP and 0.1 μM Cy3-dCTP. Upon extension, the Cy3 quenches the AF488. The control reactions were carried out under the same conditions except that dTTP was removed to prevent extension. A SpectraMax M5 plate reader was used to monitor the AF488 quenching over time. […] The plot confirms that both conjugates were functional in extending a primed nucleic acid.

Row | Molecule | amplitudes and durations for the 5-TAMRA emission shift [1] | time durations of the FRET signal for incorporation into the primer [2] | also measured
1 | 1-alpha-borano-dCTP | could be distinguished from each other | substantially different | 
2 | Nc1ccn([C@H]2C[C@H](O)[C@@H](COP(O)(=S)OP(=O)(O)OP(=O)(O)O)O2)c(=O)n1 (stereo partly drawn) [1-alpha-thiol-dCTP] |  | substantially different | 
3 | Nc1ncnc2c1ncn2[C@H]1C[C@H](O)[C@@H](COP(=O)(O)OP(=O)(O)OP(=O)(O)O)O1 [dATP] | different amplitudes and durations | very similar | 
4 | Nc1ccn([C@H]2C[C@H](O)[C@@H](COP(=O)(O)OP(=O)(O)OP(=O)(O)O)O2)c(=O)n1 [dCTP] | different amplitudes and durations |  | incorporation detected by wavelength shift for the 5-TAMRA dye ([1]; correct or incorrect nucleotide, FIG. 9A, 9B): could be detected; FRET duration, correct versus incorrect incorporation [2]: could be distinguished
5 | Nc1nc2c(ncn2[C@H]2C[C@H](O)[C@@H](COP(=O)(O)OP(=O)(O)OP(=O)(O)O)O2)c(=O)[nH]1 [dGTP] | different amplitudes and durations | very similar | FRET duration, correct versus incorrect incorporation [2]: could be distinguished
6 | Cc1cn([C@H]2C[C@H](O)[C@@H](COP(=O)(O)OP(=O)(O)OP(=O)(O)O)O2)c(=O)[nH]c1=O [dTTP] | different amplitudes and durations; also recorded: could be distinguished from each other |  | AF488 fluorescence duration measured for the incorporation [2]: substantially different
7 | O=c1ccn([C@H]2C[C@H](O)[C@@H](COP(=O)(O)OP(=O)(O)OP(=O)(O)O)O2)c(=O)[nH]1 [dUTP] |  | differed | 
8 | Gamma-ANS-dTTP | could be distinguished from each other |  | AF488 fluorescence duration measured for the incorporation [2]: substantially different
9 | Cy3AF647: RB69V510CE766C polymerase labeled with donor/acceptor pair Cy3/AF647 at cysteine residues (conjugate, UniProt Q38087 1-903, looked up, variant V510C E766C, Cy3/AF647 dye labels, RB69V510CE766C polymerase labeled with donor/acceptor pair Cy3/AF647 at cysteine residues) DNA-directed DNA polymerase: MKEFYLTVEQIGDSIFERYIDSNGRERTREVEYKPSLFAHCPESQATKYFDIYGKPCTRKLFANMRDASQWIKRMEDIGLEALGMDDFKLAYLSDTYNYEIKYDHTKIRVANFDIEVTSPDGFPEPSQAKHPIDAITHYDSIDDRFYVFDLLNSPYGNVEEWSIEIAAKLQEQGGDEVPSEIIDKIIYMPFDNEKELLMEYLNFWQQKTPVILTGWNVESFDIPYVYNRIKNIFGESTAKRLSPHRKTRVKVIENMYGSREIITLFGISVLDYIDLYKKFSFTNQPSYSLDYISEFELNVGKLKYDGPISKLRESNHQRYISYNIIDVYRVLQIDAKRQFINLSLDMGYYAKIQIQSVFSPIKTWDAIIFNSLKEQNKVIPQGRSHPVQPYPGAFVKEPIPNRYKYVMSFDLTSLYPSIIRQVNISPETIAGTFKVAPLHDYINAVAERPSDVYSCSPNGMMYYKDRDGVVPTEITKVFNQRKEHKGYMLAAQRNGEIIKEALHNPNLSCDEPLDVDYRFDFSDEIKEKIKKLSAKSLNEMLFRAQRTEVAGMTAQINRKLLINSLYGALGNVWFRYYDLRNATAITTFGQMALQWIERKVNEYLNEVCGTEGEAFVLYGDTDSIYVSADKIIDKVGESKFRDTNHWVDFLDKFARERMEPAIDRGFREMCEYMNNKQHLMFMDREAIAGPPLGSKGIGGFWTGKKRYALNVWDMEGTRYAEPKLKIMGLETQKSSTPKAVQKALKECIRRMLQEGEESLQEYFKCFEKEFRQLNYISIASVSSANNIAKYDVGGFPGPKCPFHIRGILTYNRAIKGNIDAPQVVEGEKVYVLPLREGNPFGDKCIAWPSGTEITDLIKDDVLHWMDYTVLLEKTFIKPLEGFTSAAKLDYEKKASLFDMFDF |  |  | functionality in extending a primed nucleic acid [3]: functional
10 | CF555AF647: RB69V510CE766C polymerase labeled with donor/acceptor pair CF555/AF647 at cysteine residues (conjugate, UniProt Q38087 1-903, looked up, variant V510C E766C, CF555/AF647 dye labels, RB69V510CE766C polymerase labeled with donor/acceptor pair CF555/AF647 at cysteine residues) DNA-directed DNA polymerase: MKEFYLTVEQIGDSIFERYIDSNGRERTREVEYKPSLFAHCPESQATKYFDIYGKPCTRKLFANMRDASQWIKRMEDIGLEALGMDDFKLAYLSDTYNYEIKYDHTKIRVANFDIEVTSPDGFPEPSQAKHPIDAITHYDSIDDRFYVFDLLNSPYGNVEEWSIEIAAKLQEQGGDEVPSEIIDKIIYMPFDNEKELLMEYLNFWQQKTPVILTGWNVESFDIPYVYNRIKNIFGESTAKRLSPHRKTRVKVIENMYGSREIITLFGISVLDYIDLYKKFSFTNQPSYSLDYISEFELNVGKLKYDGPISKLRESNHQRYISYNIIDVYRVLQIDAKRQFINLSLDMGYYAKIQIQSVFSPIKTWDAIIFNSLKEQNKVIPQGRSHPVQPYPGAFVKEPIPNRYKYVMSFDLTSLYPSIIRQVNISPETIAGTFKVAPLHDYINAVAERPSDVYSCSPNGMMYYKDRDGVVPTEITKVFNQRKEHKGYMLAAQRNGEIIKEALHNPNLSCDEPLDVDYRFDFSDEIKEKIKKLSAKSLNEMLFRAQRTEVAGMTAQINRKLLINSLYGALGNVWFRYYDLRNATAITTFGQMALQWIERKVNEYLNEVCGTEGEAFVLYGDTDSIYVSADKIIDKVGESKFRDTNHWVDFLDKFARERMEPAIDRGFREMCEYMNNKQHLMFMDREAIAGPPLGSKGIGGFWTGKKRYALNVWDMEGTRYAEPKLKIMGLETQKSSTPKAVQKALKECIRRMLQEGEESLQEYFKCFEKEFRQLNYISIASVSSANNIAKYDVGGFPGPKCPFHIRGILTYNRAIKGNIDAPQVVEGEKVYVLPLREGNPFGDKCIAWPSGTEITDLIKDDVLHWMDYTVLLEKTFIKPLEGFTSAAKLDYEKKASLFDMFDF |  |  | functionality in extending a primed nucleic acid [3]: functional
